Patent US20020026052A1, “3-cyanoquinolines, 3-cyano-1,6-naphthyridines, and 3-cyano-1,7-naphthyridines as protein kinase inhibitors” (American Home Products Corporation, priority 2000, published 2002)
Several values for one entry are separate records, joined by “and”; a condition that tells them apart may be missing. Equal values may be shown once.

Target: Rat2 fibroblasts stably transformed with v-Src/Hu c-Src fusion gene (Homo sapiens, UniProt P12931, cells depend on it, form not given)
Assay: Anchorage Independent Src-transformed Fibroblast Proliferation Assay
Format: cell-based, Rat
Conditions: suspension growth, MTS reagent on Day 5; read-out: anch-indep src-tx fib IC50
Protocol: Anchorage Independent Src-transformed Fibroblast Proliferation Assay
Rat2 fibroblasts stably transformed with a plasmid containing a CMV promotor controlled v-Src/Hu c-Src fusion gene in which the catalytic domain of human c-Src was inserted in place of the v-Src catalytic domain in the v-Src gene are used for the measurement of src dependent suspension growth. […] Multiple entries for a given compound indicate that it was tested multiple times.

Sequence of Rat2 fibroblasts stably transformed with v-Src/Hu c-Src fusion gene (P12931 whole entry, change not shown, the tested form may be a part): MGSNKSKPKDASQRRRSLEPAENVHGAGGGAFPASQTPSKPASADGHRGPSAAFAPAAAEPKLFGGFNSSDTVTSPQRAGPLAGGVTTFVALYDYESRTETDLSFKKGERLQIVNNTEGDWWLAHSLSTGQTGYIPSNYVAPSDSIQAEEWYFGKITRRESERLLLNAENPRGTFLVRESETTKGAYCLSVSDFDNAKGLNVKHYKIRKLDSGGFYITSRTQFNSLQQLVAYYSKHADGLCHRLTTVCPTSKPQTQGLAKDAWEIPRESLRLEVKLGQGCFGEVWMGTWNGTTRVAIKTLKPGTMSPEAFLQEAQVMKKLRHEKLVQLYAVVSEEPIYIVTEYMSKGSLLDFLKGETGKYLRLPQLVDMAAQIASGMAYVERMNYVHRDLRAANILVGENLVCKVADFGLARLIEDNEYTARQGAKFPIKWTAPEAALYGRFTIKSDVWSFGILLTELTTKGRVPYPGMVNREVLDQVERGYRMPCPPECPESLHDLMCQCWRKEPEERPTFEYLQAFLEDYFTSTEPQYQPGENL

GI50	SMILES
160 nM	CCN1CCN(Cc2cc(-c3ccc4c(Nc5cc(OC)c(Cl)cc5Cl)c(C#N)cnc4c3)cs2)CC1 [Example 19, 4-(2,4-dichloro-5-methoxyanilino)-7-{5-[(4-ethyl-1-piperazinyl)methyl]-3-thienyl}-3-quinolinecarbonitrile]
90 nM	COc1cc(Nc2c(C#N)cnc3cc(-c4ccc(CN5CCOCC5)s4)ccc23)c(Cl)cc1Cl [Example 23, 4-(2,4-Dichloro-5-methoxyanilino)-7-[5-(4-morpholinylmethyl)-2-thienyl]-3-quinolinecarbonitrile]
180 nM	COc1cc(Nc2c(C#N)cnc3cc(-c4csc(CN5CCOCC5)c4)ccc23)c(Cl)cc1Cl [Example 24, 4-(2,4-Dichloro-5-methoxyanilino)-7-[5-(4-morpholinylmethyl)-3-thienyl]-3-quinolinecarbonitrile]
1020 nM	COc1cc(Nc2c(C#N)cnc3cc(-c4ccc(CCN5CCOCC5)cc4)ccc23)c(Cl)cc1Cl [Example 27, 4-(2,4-Dichloro-5-methoxyanilino)-7-{4-[2-(4-morpholinyl)ethyl]phenyl}-3-quinolinecarbonitrile]
4100 nM	COc1cc(Nc2c(C#N)cnc3cc(-c4cccc(CCN5CCOCC5)c4)ccc23)c(Cl)cc1Cl [Example 28, 4-(2,4-Dichloro-5-methoxyanilino)-7-{3-[2-(4-morpholinyl)ethyl]phenyl}-3-quinolinecarbonitrile]
540 nM and 500 nM	COc1cc(Nc2c(C#N)cnc3cc(-c4ccc(CN5CCOCC5)cc4)ccc23)c(Cl)cc1Cl [Example 29, 4-(2,4-Dichloro-5-methoxyanilino)-7-[4-(4-morpholinylmethyl)phenyl]-3-quinolinecarbonitrile]
2000 nM and 1900 nM	CCN1CCN(CCc2ccc(-c3ccc4c(Nc5cc(OC)c(Cl)cc5Cl)c(C#N)cnc4c3)cc2)CC1 [Example 32, 4-(2,4-Dichloro-5-methoxyanilino)-7-{4-[2-(4-ethyl-1-piperazinyl)ethyl]phenyl}-3-quinolinecarbonitrile]

Tested on: not given
Assay: not given
Conditions: not given

SMILES	melting point
Cn1ccnc1Sc1ccc(Nc2c(C#N)cnc3cc(-c4ccc(N5CCC(N6CCCC6)CC5)nc4)ccc23)cc1Cl [Example 210, 4-({3-Chloro-4-[(1-methyl-H-imidazol-2-yl)sulfanyl]phenyl}amino)-7-{6-[4-(1-pyrrolidinyl)-1-piperidinyl]-3-pyridinyl}-3-quinolinecarbonitrile]	230 °C (dec.)
COCCN(C)c1ccc(-c2ccc3c(Nc4ccc(Sc5nccn5C)c(Cl)c4)c(C#N)cnc3c2)cn1 [Example 212, 4-({3-Chloro-4-[(1-methyl-1H-imidazol-2-yl)sulfanyl]phenyl}amino)-7-{6-[(2-methoxyethyl) (methyl)amino]-3-pyridinyl}-3-quinolinecarbonitrile]	224 to 226 °C
CCOC(=O)C1CCN(c2ccc(-c3ccc4c(Nc5ccc(Sc6nccn6C)c(Cl)c5)c(C#N)cnc4c3)cn2)CC1 [Example 213, Ethyl 1-{5-[4-({3-chloro-4-[(1-methyl-iH-imidazol-2-yl)sulfanyl]phenyl}amino)-3-cyano-7-quinolinyl]-2-pyridinyl}-4-piperidinecarboxylate]	253 to 255 °C
COc1cc(Nc2c(C#N)cnc3cc(-c4cnc(CN5CCOCC5)n4C)ccc23)c(Cl)cc1Cl [Example 226, 4-(2,4-Dichloro-5-methoxyanilino)-7-[1-methyl-2-(4-morpholinylmethyl)-1H-imidazol-5-yl]-3-quinolinecarbonitrile]	140 to 143 °C
COc1cc(Nc2c(C#N)cnc3cc(-c4cnc(CN5CCN(C)CC5)n4C)ccc23)c(Cl)cc1Cl [Example 227, 4-(2,4-Dichloro-5-methoxyanilino)-7-{1-methyl-2-[(4-methyl-1-piperazinyl)methyl]-1H-imidazol-5-yl}-3-quinolinecarbonitrile]	156 to 159 °C
COc1cc(Nc2c(C#N)cnc3cc(-c4cnc(CN5CCN(C)CC5)n4C)c(OC)cc23)c(Cl)cc1Cl [Example 233, 4-(2,4-Dichloro-5-methoxyanilino)-6-methoxy-7-{1-methyl-2-[(4-methyl-1-piperazinyl)methyl]-1H-imidazol-5-yl}-3-quinolinecarbonitrile]	234 to 236 °C

Further lines, results first:

melting point	SMILES
214 to 216 °C	CCN1CCN(Cc2cccc(-c3ccc4c(Nc5ccc(Sc6nccn6C)c(Cl)c5)c(C#N)cnc4c3)n2)CC1 [Example 201, 4-{3-Chloro-4-[(1-methyl-1H-imidazol-2-yl)sulfanyl]anilino}-7-{6-[(4-ethyl-1-piperazinyl)methyl]-2-pyridinyl}-3-quinolinecarbonitrile]
157 to 159 °C	CN1CCN(Cc2cccc(-c3ccc4c(Nc5ccc(Sc6nccn6C)c(Cl)c5)c(C#N)cnc4c3)n2)CC1 [Example 202, 4-{3-Chloro-4-[(1-methyl-1H-imidazol-2-yl)sulfanyl]anilino}-7-{6-[(4-methyl-1-piperazinyl)methyl]-2-pyridinyl}-3-quinolinecarbonitrile]
205 to 207 °C	Cn1ccnc1Sc1ccc(Nc2c(C#N)cnc3cc(-c4cc(CN5CCOCC5)ccn4)ccc23)cc1Cl [Example 203, 4-({3-Chloro-4-[(1-methyl-1H-imidazol-2-yl)sulfanyl]phenyl}amino)-7-[4-(4-morpholinylmethyl)-2-pyridinyl]-3-quinolinecarbonitrile]
150 to 153 °C	CCN1CCN(Cc2ccnc(-c3ccc4c(Nc5ccc(Sc6nccn6C)c(Cl)c5)c(C#N)cnc4c3)c2)CC1 [Example 205, 4-({3-Chloro-4-[(1-methyl-iH-imidazol-2-yl)sulfanyl]phenyl}amino)-7-{4-[(4-ethyl-1-piperazinyl)methyl]-2-pyridinyl}-3-quinolinecarbonitrile]
208 to 210 °C	CN1CCN(Cc2ccnc(-c3ccc4c(Nc5ccc(Sc6nccn6C)c(Cl)c5)c(C#N)cnc4c3)c2)CC1 [Example 206, 4-({3-Chloro-4-[(1-methyl-1H-imidazol-2-yl)sulfanyl]phenyl}amino)-7-{4-[(4-methyl-I -piperazinyl)methyl]-2-pyridinyl}-3-quinolinecarbonitrile]
195 °C (dec.)	Cn1ccnc1Sc1ccc(Nc2c(C#N)cnc3cc(-c4ncccc4CN4CCOCC4)ccc23)cc1Cl [Example 207, 4-({3-Chloro-4-[(1-methyl-1H-imidazol-2-yl)sulfanyl]phenyl}amino)-7-[3-(4-morpholinylmethyl)-2-pyridinyl]-3-quinolinecarbonitrile]
187 to 190 °C	CCN1CCN(Cc2cccnc2-c2ccc3c(Nc4ccc(Sc5nccn5C)c(Cl)c4)c(C#N)cnc3c2)CC1 [Example 208, 4-({3-Chloro-4-[(1-methyl-1H-imldazol-2-yl)sulfanyl]phenyl}amino)-7-{3-[(4-ethyl-1-piperazinyl)methyl]-2-pyridinyl}-3-quinolinecarbonitrile]
217 to 220 °C	CN1CCN(Cc2cccnc2-c2ccc3c(Nc4ccc(Sc5nccn5C)c(Cl)c4)c(C#N)cnc3c2)CC1 [Example 209, 4-({3-Chloro-4-[(I -methyl-1H-imidazol-2-yl)sulfanyl]phenyl}amino)-7-{3-[(4-methyl-1-piperazinyl)methyl]-2-pyridinyl}-3-quinolinecarbonitrile]
178 to 180 °C	Cn1ccnc1Sc1ccc(Nc2c(C#N)cnc3cc(-c4ccc(N5CCC(O)CC5)nc4)ccc23)cc1Cl [Example 214, 4-({3-Chloro-4-[(1-methyl-1H-imidazol-2-yl)sulfanyl]phenyl}amino)-7-[6-(4-hydroxy-1-piperidinyl)-3-pyridinyl]-3-quinolinecarbonitrile]
239 to 241 °C	Cn1ccnc1Sc1ccc(Nc2c(C#N)cnc3cc(-c4ccc(N5CCN(CCO)CC5)nc4)ccc23)cc1Cl [Example 215, 4-({3-Chloro-4-[(1-methyl-1H-irnidazol-2-yl)sulfanyl]phenyl}amino)-7-{6-[4-(2-hydroxyethyl)-1-piperazinyl]-3-pyridinyl}-3-quinolinecarbonitrile]
228 °C (dec.)	CN(CCO)c1ccc(-c2ccc3c(Nc4ccc(Sc5nccn5C)c(Cl)c4)c(C#N)cnc3c2)cn1 [Example 216, 4-({3-Chloro-4-[(1-methyl-1H-imidazol-2-yl)sulfanyl]phenyl}amino)-7-{6-[(2-hydroxyethyl) (methyl)amino]-3-pyridinyl}-3-quinolinecarbonitrile]
160 to 163 °C	Cn1ccnc1Sc1ccc(Nc2c(C#N)cnc3cc(-c4ccc(CN5CCN(CCO)CC5)cn4)ccc23)cc1Cl [Example 217, 4-({3-chloro-4-[(1-methyl-1H-imidazol-2-yl)sulfanyl]phenyl}amino)-7-(5-{[4-(2-hydroxy-ethyl)-1-piperazinyl]-methyl}-2-pyridinyl)-3-quinolinecarbonitrile]
220 to 222 °C	Cn1ccnc1Sc1ccc(Nc2c(C#N)cnc3cc(-c4ccc(CN5CCSCC5)cn4)ccc23)cc1Cl [Example 219]
192 to 195 °C	CCN1CCN(Cc2ccc(-c3ccc4c(Nc5ccc(Sc6nccn6C)c(Cl)c5)c(C#N)cnc4c3)cn2)CC1 [Example 220, 4-({3-Chloro-4-[(1-methyl-1H-imidazol-2-yl)sulfanyl]phenyl}amino)-7-1-{6-[(4-ethyl-1-piperazinyl)methyl]-3-pyridinyl}-3-quinolinecarbonitrile]
228 to 230 °C	CN1CCN(Cc2ccc(-c3ccc4c(Nc5ccc(Sc6nccn6C)c(Cl)c5)c(C#N)cnc4c3)cn2)CC1 [Example 221, 4-({3-Chloro-4-[(1-methyl-1H-imidazol-2-yl)sulfanyl]phenyl}amino)-7-1-{6-[(4-methyl-1-piperazinyl)methyl]-3-pyridinyl}-3-quinolinecarbonitrile]
242 to 244 °C	Cn1ccnc1Sc1ccc(Nc2c(C#N)cnc3cc(-c4ccc(CN5CCC(O)CC5)nc4)ccc23)cc1Cl [Example 223, 4-({3-Chloro-4-[(1-methyl-1H-imidazol-2-yl)sulfanyl]phenyl}amino)-7-{6-[(4-hydroxy-1-piperidinyl)methyl]-3-pyridinyl}-3-quinolinecarbonitrile]
